Results on two compounds are retold here after ChEMBL document CHEMBL1221208, “ATP-competitive inhibitors of the mitotic kinesin KSP that function via an allosteric mechanism” (Nat Chem Biol, 2007).

Positions count from the first letter of the chain named. The source made the active and inactive calls. The rule behind the calls is not given here.

In test [1] the target is T1, Kinesin-like protein KIF11 (Homo sapiens) (UniProt P52732).
T1 sequence (whole entry): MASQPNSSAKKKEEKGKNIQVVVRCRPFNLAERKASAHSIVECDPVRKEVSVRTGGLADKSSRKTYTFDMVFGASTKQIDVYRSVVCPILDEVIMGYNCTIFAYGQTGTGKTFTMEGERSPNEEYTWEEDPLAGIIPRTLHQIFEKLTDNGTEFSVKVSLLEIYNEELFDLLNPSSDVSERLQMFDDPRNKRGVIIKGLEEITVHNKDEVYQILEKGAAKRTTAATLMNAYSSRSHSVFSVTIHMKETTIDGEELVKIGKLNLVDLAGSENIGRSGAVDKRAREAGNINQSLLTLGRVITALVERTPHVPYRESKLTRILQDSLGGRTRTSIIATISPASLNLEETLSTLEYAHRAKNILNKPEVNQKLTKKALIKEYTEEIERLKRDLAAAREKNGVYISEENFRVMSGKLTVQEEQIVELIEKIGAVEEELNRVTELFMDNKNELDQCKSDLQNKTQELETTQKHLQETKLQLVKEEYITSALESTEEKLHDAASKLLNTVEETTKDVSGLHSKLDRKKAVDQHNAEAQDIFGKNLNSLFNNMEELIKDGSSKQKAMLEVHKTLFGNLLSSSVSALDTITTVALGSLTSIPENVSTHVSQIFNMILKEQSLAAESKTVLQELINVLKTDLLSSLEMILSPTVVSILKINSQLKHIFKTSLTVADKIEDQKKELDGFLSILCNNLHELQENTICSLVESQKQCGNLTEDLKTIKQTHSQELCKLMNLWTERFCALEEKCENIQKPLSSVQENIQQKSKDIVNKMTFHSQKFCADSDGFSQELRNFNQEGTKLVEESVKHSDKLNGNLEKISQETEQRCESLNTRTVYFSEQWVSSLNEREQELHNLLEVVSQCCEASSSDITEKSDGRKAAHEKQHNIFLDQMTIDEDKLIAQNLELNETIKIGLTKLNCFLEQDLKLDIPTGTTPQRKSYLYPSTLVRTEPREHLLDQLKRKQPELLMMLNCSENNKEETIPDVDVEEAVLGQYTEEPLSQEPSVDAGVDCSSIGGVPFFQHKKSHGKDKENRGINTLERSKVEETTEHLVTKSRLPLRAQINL
Nature of the test: Uncompetitive inhibition of human wild type Eg5 with respect to microtubule using varying ATP levels in presence of saturating levels of microtubule by Lineweaver-Burke plot.

In test [2] the test system is T2, Kinesin-like protein KIF11 (Homo sapiens), P52732 [D130V].
T2 sequence (whole entry): T1 sequence (whole entry) with D130V
Nature of the test: Uncompetitive inhibition of human KSP D130V mutant with respect to microtubule using varying ATP levels in presence of saturating levels of microtubule by Lineweaver-Burke plot.

`NC(=O)Nc1ccc(-c2ccc(C(F)(F)F)cc2)cc1F`: the inhibition entry in test [1] and in test [2] was “Active” in each case.
For the compound `O=C1CCc2cc(-c3ccc(C(F)(F)F)cc3)ccc2N1`, the inhibition result in test [1] and in test [2] was “Active” each time.
